US10471043B2, “Compounds and methods of treating bacterial infections” (ULTUPHARMA AB, priority 2015, dated 2019)
≈ marks a conversion by molar mass, not a printed value. Read-outs that look alike come from different tables or passages of the source.

Columns and labels:
[1] = test system: Staphylococcus aureus strain LMG15975; assay: MIC by broth micro-dilution, AM3/PBS 1:1; type: cell-based
Procedure: (§1) At first (Table 1), MIC is determined by broth micro-dilution method. The test medium is Antibiotic Medium 3 (AM3; Difco Ltd) mixed with Phosphate Buffered Saline (PBS) in proportions 1:1. Selected MIC values are verified using cation-adjusted Mueller Hinton Broth (MHB; BD). Cell concentration of tested pathogen is adjusted to between 3 and 5×10^5 cells per ml. To verify cell concentration of tested pathogen, viable cell counts are performed directly after each MIC-test by dilution method with PBS as a dilution solvent. Cells are counted on the agar plates with 50% strength Vegetable Peptone Broth (50% VPB; Oxoid Ltd) after 16 to 20 h of incubation at 37° C.
(§2) Cells of pathogen suspended in test medium are distributed to the wells and the plates are incubated for 16 to 20 h at 37° C. Negative controls are wells with the test medium only and positive controls are wells with the pathogen in test medium. The MIC is defined as the lowest concentration of each compound with no visible growth of pathogen.
Example compounds of formula I were examined for antibacterial activity against the Gram-positive bacterium Staphylococcus aureus strain LMG15975 using the above described method (Table 1).

in vitro = conditions: human, CC50 (μg/mL)
[2] = Cytotoxicity assay, WST-8; conditions: human, HepG2 cells, CC50 (μg/mL)
[3] = cited from earlier work
A. baumannii = assay: MIC by broth micro-dilution; type: cell-based; conditions: Acinetobacter baumannii, A. baumannii (G−), Table 2; read-out: MIC (μg/ml) A. baumannii
Procedure: as §1, §2

[4] = test system: mupirocin-resistant strains of Staphylococcus aureus; assay: MIC against mupirocin-resistant strains; type: cell-based; conditions: Staphylococcus aureus; all 4 strains (V55, V86, V308, V321); read-out: MIC values for mupirocin
Procedure: as §1, §2

E. faecium = assay: Antimicrobial Susceptibility Test by Broth Microdilution, M07-A9 CLSI; type: cell-based; conditions: Enterococcus faecium; E. faecium 7, Vancomycin-resistant, Table 5; read-out: MIC
S. aureus = assay: as above; type: cell-based; conditions: Staphylococcus aureus
Bacillus cereus = assay: MIC by broth micro-dilution; type: cell-based; conditions: Table 4, read-out: MIC (μg/ml) B. cereus
Procedure: as §1, §2

S. epidermidis = assay: Antimicrobial Susceptibility Test by Broth Microdilution, M07-A9 CLSI; type: cell-based; conditions: Staphylococcus epidermidis
E. faecalis = assay: as above; type: cell-based; conditions: Enterococcus faecalis
[5] = LMG15975, S. aureus LMG15975, Table 1, read-out: MIC
[6] = LMG15975, S. aureus LMG15975, Table 1, read-out: MIC (μg/ml)
[7] = reference markers for Caco-2 assay
[8] = LMG15975, S. aureus (G+), Table 2, read-out: MIC (μg/ml) S. aureus
[9] = ATCC29213, S. aureus ATCC29213, QC strain, Table 5
[10] = S. aureus 7280, Methicillin-resistant
[11] = S. aureus MO17, Methicillin-sensitive, Table 5
[12] = S. aureus PICI, Methicillin-resistant, Table 5
[13] = S. epidermis RO7, Methicillin-sensitive, Table 5
[14] = S. epidermis Staph 1, Methicillin-resistant
[15] = S. epidermis TA12, Methicillin-resistant, Table 5
[16] = E. faecalis 14, Vancomycin-resistant
[17] = E. faecalis 24, Vancomycin-sensitive, Table 5
[18] = LMG15975, S. aureus LMG 15975 (SLU), Methicillin-resistant, Table 5, read-out: MIC (μg/mL)

Structure (SMILES) | MIC [1, 5] | MIC [1, 6] | CC50 at 48 h ([2]; HepG2, 48 hours, Table 1) | other results
CCCCCCCCC[C@@H]1CC(O)=C(C(=O)CCC)C(=O)O1 [Ex. 2A, (R)-3-butyryl-4-hydroxy-6-nonyl-5,6-dihydro-2H-pyran-2-one] | 3.2 to 6.4 µM | 1 to 2 µg/mL | – | CC50 at 48 h (in vitro): 27 µM
N[C@@H](Cc1ccccc1)C(=O)O [L-Phenylalanine] | – | – | – | absorption in man (%) [3, 7]: 100%
C/C(=C\C(=O)OCCCCCCCCC(=O)O)C[C@@H]1OC[C@H](C[C@@H]2O[C@H]2[C@@H](C)[C@H](C)O)[C@@H](O)[C@H]1O [mupirocin, reference compound] | – | – | – | MIC [4]: > 256 µg/mL
CCCCCCCCCC1CC(O)=C(C(C)=O)C(=O)O1 (centres unmarked) [Ex. 9, 3-acetyl-4-hydroxy-6-nonyl-5,6-dihydro-2H-pyran-2-one] | 2.1 to 4.3 µM | 1.5 to 2.5 µg/mL | 71 µM | MIC (A. baumannii): > 64 µg/mL; MIC [1, 8]: 1.5 to 2.5 µg/mL
CCCCCCCCC[C@H]1CC(O)=C(C(=O)CCC)C(=O)O1 [Ex. 2B, (S)-3-butyryl-4-hydroxy-6-nonyl-5,6-dihydro-2H-pyran-2-one] | 1.3 to 1.9 µM | 0.4 to 0.6 µg/mL | – | CC50 at 48 h (in vitro): 25 µM
CN(Cc1cnc2nc(N)nc(N)c2n1)c1ccc(C(=O)N[C@@H](CCC(=O)O)C(=O)O)cc1 [Methotrexate] | – | – | – | absorption in man (%) ([3]; in vivo): 20%
Nc1nc2c(ncn2COCCO)c(=O)[nH]1 [Acyclovir] | – | – | – | absorption in man (%) [3, 7]: 30%
CCCCCCCCC1CC(O)=C(C(=O)CC)C(=O)O1 (centres unmarked) [Ex. 6, 4-hydroxy-6-octyl-3-propionyl-5,6-dihydro-2H-pyran-2-one] | 4.3 µM | 1.2 µg/mL | 55 µM | –
CCCCCCCCCC1CC(O)=C(C(=O)CC)C(=O)O1 (centres unmarked) [Ex. 5, 4-hydroxy-6-nonyl-3-propionyl-5,6-dihydro-2H-pyran-2-one] | 2.2 µM | 0.65 µg/mL | 50 µM | MIC (A. baumannii): 32 to 48 µg/mL (≈ 108 to 162 µM); MIC (Bacillus cereus): ≤ 1 µg/mL; MIC [1, 8]: 0.7 µg/mL; MIC ([1]; LMG15975, Table 4, read-out: MIC (μg/ml) S. aureus): 0.7 µg/mL
CCCCCCC/C=C/C1CC(O)=C(C(=O)CCC)C(=O)O1 (centres unmarked) [Ex. 4, (E)-3-butyryl-6-(non-1-en-1-yl)-4-hydroxy-5,6-dihydro-2H-pyran-2-one] | 2.6 to 3.9 µM | 0.8 to 1.2 µg/mL | – | CC50 at 48 h (in vitro): 36 µM
CCCCCCCCCCC1CC(O)=C(C(=O)CCCC)C(=O)O1 (centres unmarked) [Ex. 3, 6-decyl-4-hydroxy-3-pentanoyl-5,6-dihydro-2H-pyran-2-one] | 1.2 to 1.8 µM | 0.4 to 0.6 µg/mL | 13 µM | –
OC[C@@H](O)[C@@H](O)[C@H](O)[C@H](O)CO [Mannitol] | – | – | – | absorption in man (%) ([3]; in vivo): 16%
CCCCCCCCC1CC(O)=C(C(C)=O)C(=O)O1 (centres unmarked) [Ex. 7, 3-acetyl-4-hydroxy-6-octyl-5,6-dihydro-2H-pyran-2-one] | 9.3 µM | 2.5 µg/mL | 65 µM | –
CCCCCCCCCCC1CC(O)=C(C(C)=O)C(=O)O1 (centres unmarked) [Ex. 11, 3-acetyl-6-decyl-4-hydroxy-5,6-dihydro-2H-pyran-2-one] | 2.7 to 4 µM | 0.8 to 1.2 µg/mL | 40 µM | –

Second part, led by results:

MIC [1, 5] | MIC [1, 6] | Structure (SMILES) | CC50 at 48 h ([2]; HepG2, 48 hours, Table 1) | other results
1.4 to 2.7 µM | 0.5 to 1 µg/mL | CCCCCCCCCC1CC(O)=C(C(=O)CC2CCOCC2)C(=O)O1 (centres unmarked) [Ex. 26, 4-hydroxy-6-nonyl-3-(2-(tetrahydro-2H-pyran-4-yl)acetyl)-5,6-dihydro-2H-pyran-2-one] | – | –
29 to 59 µM | 10 to 20 µg/mL | COCCCCCCC1CC(O)=C(C(=O)CC2CCCC2)C(=O)O1 (centres unmarked) [Ex. 23, 3-(2-cyclopentylacetyl)-4-hydroxy-6-(6-methoxyhexyl)-5,6-dihydro-2H-pyran-2-one] | – | –
0.6 to 1.2 µM | 0.2 to 0.4 µg/mL | CCCCCCCCCC1CC(O)=C(C(=O)CC(C)C)C(=O)O1 (centres unmarked) [Ex. 15, 4-hydroxy-3-(3-methylbutanoyl)-6-nonyl-5,6-dihydro-2H-pyran-2-one] | 21 µM | –
1.9 to 2.6 µM | 0.6 to 0.8 µg/mL | CCCCCCCCCCC1CC(O)=C(C(=O)CCC)C(=O)O1 (centres unmarked) [Ex. 12, 3-butyryl-6-decyl-4-hydroxy-5,6-dihydro-2H-pyran-2-one] | 25 µM | MIC (A. baumannii): 8 to 16 µg/mL (≈ 24.7 to 49.3 µM); MIC [1, 8]: 0.6 to 0.8 µg/mL
1.8 to 2.4 µM | 0.6 to 0.8 µg/mL | CCCCCCCCCC1CC(O)=C(C(=O)CCCCC)C(=O)O1 (centres unmarked) [Ex. 18, 3-hexanoyl-4-hydroxy-6-nonyl-5,6-dihydro-2H-pyran-2-one] | 15 µM | MIC (A. baumannii): 4 to 8 µg/mL (≈ 11.8 to 23.6 µM); MIC [1, 8]: 0.6 to 0.8 µg/mL
2.7 to 5.1 µM | 0.8 to 1.5 µg/mL | CCCCCCCCC1CC(O)=C(C(=O)CCC)C(=O)O1 (centres unmarked) [Ex. 13, 3-butyryl-4-hydroxy-6-octyl-5,6-dihydro-2H-pyran-2-one] | 30 µM | MIC (A. baumannii): 24 to 32 µg/mL (≈ 81 to 108 µM); MIC [1, 8]: 0.8 to 1.5 µg/mL
6.1 to 15 µM | 2 to 5 µg/mL | CCCCCCCCCC1CC(O)=C(C(=O)CCOC)C(=O)O1 (centres unmarked) [Ex. 24, 4-hydroxy-3-(3-methoxypropanoyl)-6-nonyl-5,6-dihydro-2H-pyran-2-one] | – | –
> 64 µM | > 20 µg/mL | COCCCCCCC1CC(O)=C(C(=O)CC2CC2)C(=O)O1 (centres unmarked) [Ex. 25, 3-(2-cyclopropylacetyl)-4-hydroxy-6-(6-methoxyhexyl)-5,6-dihydro-2H-pyran-2-one] | – | –
0.3 to 0.6 µM | 0.1 to 0.2 µg/mL | CCCCCCCCCCCC1CC(O)=C(C(=O)CCCC)C(=O)O1 (centres unmarked) [Ex. 17, 4-hydroxy-3-pentanoyl-6-undecyl-5,6-dihydro-2H-pyran-2-one] | 12 µM | MIC (E. faecium): 1 µg/mL (≈ 2.84 µM); CC50 at 48 h ([2]; HepG2, Table 5): 12 µM; MIC (S. aureus; [9]): 16 µg/mL (≈ 45.4 µM); MIC (S. aureus; [10]): 8 µg/mL (≈ 22.7 µM); MIC (S. aureus; [11]): 4 µg/mL (≈ 11.3 µM); MIC (S. aureus; [12]): 8 µg/mL (≈ 22.7 µM); MIC (Bacillus cereus): ≤ 1 µg/mL; MIC (S. epidermidis; [13]): 0.5 µg/mL (≈ 1.42 µM); MIC (S. epidermidis; [14]): 0.5 µg/mL (≈ 1.42 µM); MIC (S. epidermidis; [15]): 0.5 µg/mL (≈ 1.42 µM); MIC (E. faecalis; [16]): 1 µg/mL (≈ 2.84 µM); MIC (E. faecalis; [17]): 1 µg/mL (≈ 2.84 µM); MIC [1, 18]: 0.1 to 0.2 µg/mL
0.3 to 0.6 µM | 0.1 to 0.2 µg/mL | CCCCCCCCCCCC1CC(O)=C(C(=O)CCC)C(=O)O1 (centres unmarked) [Ex. 16, 3-butyryl-4-hydroxy-6-undecyl-5,6-dihydro-2H-pyran-2-one] | – | CC50 at 48 h (in vitro): 19 µM; MIC (E. faecium): 2 µg/mL (≈ 5.91 µM); MIC (S. aureus; [9]): 4 µg/mL (≈ 11.8 µM); MIC (S. aureus; [10]): 8 µg/mL (≈ 23.6 µM); MIC (S. aureus; [11]): 4 µg/mL (≈ 11.8 µM); MIC (S. aureus; [12]): 4 µg/mL (≈ 11.8 µM); MIC (A. baumannii): < 4 µg/mL; MIC (S. epidermidis; [13]): 0.5 µg/mL (≈ 1.48 µM); MIC (S. epidermidis; [14]): 0.5 µg/mL (≈ 1.48 µM); MIC (S. epidermidis; [15]): 1 µg/mL (≈ 2.95 µM); MIC (E. faecalis; [16]): 1 µg/mL (≈ 2.95 µM); MIC (E. faecalis; [17]): 1 µg/mL (≈ 2.95 µM); MIC [1, 8]: 0.1 to 0.2 µg/mL; MIC [1, 18]: 0.1 to 0.2 µg/mL
6.5 to 9.7 µM | 2 to 3 µg/mL | CCCC(=O)C1=C(O)CC(CC(C)CCC=C(C)C)OC1=O (centres unmarked) [Ex. 21, 3-butyryl-6-(2,6-dimethylhept-5-enyl)-4-hydroxy-5,6-dihydro-2H-pyran-2-one] | – | –
64 to 96 µM | 20 to 30 µg/mL | CCCC(=O)C1=C(O)CC(CCCCCCCOC)OC1=O (centres unmarked) [Ex. 20, 3-butyryl-4-hydroxy-6-(7-methoxyheptyl)-5,6-dihydro-2H-pyran-2-one] | 80 µM | –
22 to 45 µM | 6 to 12 µg/mL | CCCC(=O)C1=C(O)CC(CC2CCCC2)OC1=O (centres unmarked) [Ex. 22, 3-butyryl-6-(cyclopentylmethyl)-4-hydroxy-5,6-dihydro-2H-pyran-2-one] | – | –
133 to 166 µM | 40 to 50 µg/mL | CCCC(=O)C1=C(O)CC(CCCCCCCC#N)OC1=O (centres unmarked) [Ex. 19, 8-(5-butyryl-4-hydroxy-6-oxo-3,6-dihydro-2H-pyran-2-yl)octanenitrile] | – | CC50 at 48 h (in vitro): > 100 µM
5.5 to 14 µM | 2 to 5 µg/mL | N#CCCCCCCCC1CC(O)=C(C(=O)CC2CCOCC2)C(=O)O1 (centres unmarked) [Ex. 27, 8-(4-hydroxy-6-oxo-5-(2-(tetrahydro-2H-pyran-4-yl)acetyl)-3,6-dihydro-2H-pyran-2-yl)octanenitrile] | – | –
> 55 µM | > 20 µg/mL | N#CCCCCCCCC1CC(O)=C(C(=O)CC2CCCCC2)C(=O)O1 (centres unmarked) [Ex. 28, 8-(5-(2-cyclohexylacetyl)-4-hydroxy-6-oxo-3,6-dihydro-2H-pyran-2-yl)octanenitrile] | – | –
